Assays:
[1] = Pets drinking iodinated water, observation for ill effects; type: in vivo, dogs and cats
[2] = Loss of I2 from water at room temperature (hydrolysis / out gassing); type: physicochemical
Method: The only significant anti-infective iodine species in water is molecular iodine (I2). In the pH range of 6.0<->7.0, I2 is favored when I2 is added directly into water. […] If the pH of the water is kept at about pH 6.0, I2 is favored, but if the pH is above 7.0, I2 will hydrolyze (3) to I^− and HOI and I3^− (7) can form and accumulate in the water. I have determined experimentally that I2 is lost from the water at room temperature at a linear rate of about 0.3 mcg/mL/hour when the pH of the water was adjusted to ˜pH5-5.5 with acetic acid to prolong survival of I2 in water. Thus after 24 hours >90% of the I2 is lost either to hydrolysis
or volatile I2 via out gassing. At higher pH, the iodine will dissipate faster or be converted to HOI. At neutral pH=7 the I2 loss is ˜0.5 mcg/mL/hr so that >90% is gone within 4 hours.

II [I2, molecular iodine]
ill effects ([1]; dogs and cats followed for 3 weeks, 1-5 mcg/mL in drinking water): no ill effects were noted | changes in pet behavior, food consumption or excretion ([1]; two 35 kg dogs and two 4 kg cats, drinking water with average about 5 mcg/mL I2, followed for 4 days): no obvious changes in pet behavior, food consumption or excretion | I2 lost (hydrolysis or out gassing) ([2]; after 24 hours, ~pH5-5.5, room temperature): > 90% | I2 loss rate ([2]; neutral pH=7): ~0.5 µg/mL/h | rate of I2 loss from the water (linear) ([2]; room temperature, water adjusted to ~pH5-5.5 with acetic acid): about 0.3 mcg/mL/hour | I2 gone ([2]; within 4 hours, neutral pH=7): > 90%

— US20180125032A1, “Automated method and system for introducing Liquid iodine into drinking water” (priority 2010, published 2018)
